We go through two compounds from the NIST ThermoML archive (doi:10.1016/j.jct.2006.10.016).

The conditions of this data set: 101 kPa, Liquid.

± gives the expanded uncertainty stated by the source.

For orientation: mass density means mass per unit of volume. As a reminder, the viscosity is the internal friction of a fluid under shear. With `CO` [methanol], the mass density runs as follows: (303.15 K) 781.3 ± 1.9 kg/m3; (308.15 K) 778.2 ± 2.1 kg/m3; (313.15 K) 772.4 ± 2.2 kg/m3; (318.15 K) 767.8 ± 2.3 kg/m3; (323.15 K) 762.7 ± 2.4 kg/m3. Also, the viscosity (303.15 K) is reported as 0.5178 ± 0.028 mPa·s; the viscosity (308.15 K) was 0.4843 ± 0.026 mPa·s; the viscosity (313.15 K) stood at 0.4515 ± 0.025 mPa·s; the viscosity (318.15 K) was 0.4233 ± 0.024 mPa·s; the viscosity (323.15 K) is reported as 0.395 ± 0.023 mPa·s.

`CCO` [ethanol]: the mass density (303.15 K) was determined as 783.4 ± 2 kg/m3; the mass density (308.15 K) is 779 ± 2.1 kg/m3; the mass density (313.15 K) turned out to be 774.6 ± 2.2 kg/m3; the mass density (318.15 K) worked out at 769.8 ± 2.3 kg/m3; the mass density (323.15 K) stood at 766.1 ± 2.4 kg/m3. The viscosity reads like this: (303.15 K) 1.086 ± 0.051 mPa·s; (308.15 K) 0.9732 ± 0.047 mPa·s; (313.15 K) 0.8596 ± 0.042 mPa·s; (318.15 K) 0.8284 ± 0.041 mPa·s; (323.15 K) 0.7493 ± 0.037 mPa·s.
